Like-named read-outs stand apart in the source and are kept apart here. Values belong to the compound of their own block, whether it stands above or below them.
Columns and labels:
[1] = biological target: Human CA II (Homo sapiens, UniProt P00918); experiment: CA catalyzed CO2 hydration stopped-flow assay, CA II; details: for decrease in activity on CA II compared to the standard AAZ: versus AAZ
Experimental: (§1) An applied photophysics stopped-flow instrument has been used for assaying the CA catalyzed CO2 hydration activity. […] The CO2 concentrations ranged from 1.7 to 17 mM for the determination of the kinetic parameters and inhibition constants. […] The uncatalyzed rates were determined in the same manner and subtracted from the total observed rates. Stock solutions of inhibitor (10–50 mM) were prepared in distilled-deionized water and dilutions up to 0.1 nM were done thereafter with the assay buffer.

[2] = biological target: Human CA I (Homo sapiens, UniProt P00915); experiment: CA catalyzed CO2 hydration stopped-flow assay, CA I
Experimental: as §1

[3] = biological target: Human CA XII (Homo sapiens, UniProt O43570); experiment: CA catalyzed CO2 hydration stopped-flow assay, CA XII
Experimental: as §1

[4] = tested on: MMP-2; parameters: method as in PMID 17088065, PMID 16451058, PMID 19204958; details: Table 2; existing data ref 16, 17, 24; cited from earlier work
[5] = biological target: Human CA IX (Homo sapiens, UniProt Q16790); experiment: CA catalyzed CO2 hydration stopped-flow assay, CA IX
Experimental: as §1

[6] = biological target: Human CA XIV (Homo sapiens, UniProt Q9ULX7); experiment: CA catalyzed CO2 hydration stopped-flow assay, CA XIV
Experimental: as §1

[7] = tested on: MMP-8; parameters: method as in PMID 17088065, PMID 16451058, PMID 19204958; details: Table 2; existing data ref 16, 17, 24; cited from earlier work
[8] = read-out: IC50 CA II, Table 1, human CA II, stopped-flow CO2 hydration, 15 min preincubation
[9] = read-out: IC50 CA I, Table 1, recombinant human CA I, stopped-flow CO2 hydration, 15 min preincubation
[10] = IC50 CA II, Table 1, human CA II, stopped-flow CO2 hydration, 15 min preincubation
[11] = read-out: IC50 CA I, Table 2, recombinant human CA I, stopped-flow CO2 hydration
[12] = read-out: IC50 CA XII, Table 2, recombinant human CA XII, stopped-flow CO2 hydration
[13] = read-out: IC50 CA II, Table 2, recombinant human CA II, stopped-flow CO2 hydration
[14] = read-out: IC50 CA IX, Table 2, recombinant human CA IX, stopped-flow CO2 hydration
[15] = read-out: IC50 CA XIV, Table 2, recombinant human CA XIV, stopped-flow CO2 hydration

Human CA I, sequence (P00915 whole entry): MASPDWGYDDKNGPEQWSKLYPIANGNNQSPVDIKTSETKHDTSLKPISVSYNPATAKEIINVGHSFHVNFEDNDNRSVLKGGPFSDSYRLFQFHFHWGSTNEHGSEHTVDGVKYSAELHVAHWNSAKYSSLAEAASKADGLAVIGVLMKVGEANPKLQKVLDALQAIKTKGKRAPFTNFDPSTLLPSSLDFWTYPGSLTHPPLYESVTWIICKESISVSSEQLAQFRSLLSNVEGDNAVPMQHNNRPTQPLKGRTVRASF
Human CA XII, sequence (O43570 25-354): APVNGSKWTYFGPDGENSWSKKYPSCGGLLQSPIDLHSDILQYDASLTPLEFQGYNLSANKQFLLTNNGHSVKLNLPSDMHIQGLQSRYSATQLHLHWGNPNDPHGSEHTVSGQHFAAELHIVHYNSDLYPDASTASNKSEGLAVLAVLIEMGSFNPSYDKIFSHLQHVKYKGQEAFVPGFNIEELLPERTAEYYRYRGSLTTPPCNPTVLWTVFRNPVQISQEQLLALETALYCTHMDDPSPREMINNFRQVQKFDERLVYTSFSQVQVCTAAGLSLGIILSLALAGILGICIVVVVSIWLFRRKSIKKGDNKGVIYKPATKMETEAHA
Human CA XIV, sequence (Q9ULX7 16-337): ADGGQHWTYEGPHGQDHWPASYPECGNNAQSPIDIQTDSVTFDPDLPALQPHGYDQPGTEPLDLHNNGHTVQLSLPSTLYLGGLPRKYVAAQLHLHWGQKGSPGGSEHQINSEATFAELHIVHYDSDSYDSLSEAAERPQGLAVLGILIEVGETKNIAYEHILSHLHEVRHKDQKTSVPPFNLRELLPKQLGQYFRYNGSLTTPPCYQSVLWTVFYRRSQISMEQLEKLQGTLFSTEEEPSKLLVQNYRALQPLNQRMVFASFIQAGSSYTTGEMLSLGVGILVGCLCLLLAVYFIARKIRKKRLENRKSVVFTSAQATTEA

- IC50 [3]: 8.48 µM
- IC50 [1, 10]: > 10 µM
- IC50 ([1]; IC50 CA II, Table 2, recombinant human CA II, stopped-flow CO2 hydration): 21.1 µM
- IC50 [2]: > 10 µM
- IC50 [2, 11]: > 10 µM
- IC50 [5]: 0.837 µM
- IC50 [6]: 7.47 µM
Compound: COc1ccc(-c2ccc(S(=O)(=O)C(Cc3ccccc3)P(=O)(O)O)cc2)cc1 (stereo not drawn) [Compound 10, 1–(4′-methoxybiphenyl-4-sulfonyl)-2-phenylethylphosphonic acid]
- IC50 [4]: 8.2 µM

- inhibitory activity on CA II (in words) [1]: completely devoid of activity
- IC50 [1, 8]: > 10 µM
- inhibitory activity on CA I (in words) [2]: completely devoid of activity
- IC50 [2, 9]: > 10 µM
Compound: O=C(O)CS(=O)(=O)c1ccc(-c2ccccc2)cc1 [Compound 2]

- decrease in potency on CA XII in comparison to CA IX ([3]; CA XII versus CA IX): 4 fold
- IC50 ([3]; read-out: IC50 CA XII, rounded value): 0.47 µM
- IC50 [3, 12]: 0.475 µM
- decrease in activity on CA II compared to the standard AAZ [1]: ~100 fold
- IC50 [1, 8]: 4.14 µM
- IC50 ([1]; read-out: IC50 CA II, Table 2, CA II from Sigma): 4.14 µM
- IC50 [2, 9]: > 10 µM
- IC50 [2, 11]: > 10 µM
- IC50 [5, 14]: 0.093 µM
- decrease in potency on CA XIV in comparison to CA IX ([6]; CA XIV versus CA IX): 4 fold
- IC50 ([6]; read-out: IC50 CA XIV, rounded value): 0.37 µM
- IC50 [6, 15]: 0.369 µM
Compound: Cc1ccc(-c2ccc(S(=O)(=O)N[C@@H](C(C)C)P(=O)(O)O)cc2)cc1 [(R)-12, (R)-N-(4′-methylbiphenylsulfonyl)-phosphovaline]
- IC50 [4]: 0.0023 µM
- IC50 [7]: 0.0004 µM

- IC50 [1, 8]: > 10 µM
- IC50 [2, 9]: > 10 µM
Compound: CC(C)(P(=O)(O)O)S(=O)(=O)c1ccc(-c2ccccc2)cc1 [Compound 11]

- IC50 [3, 12]: 6.22 µM
- decrease in activity on CA II compared to the standard AAZ [1]: ~100 fold
- IC50 [1, 8]: 3.78 µM
- IC50 [1, 13]: 3.78 µM
- IC50 [2, 9]: > 10 µM
- IC50 [2, 11]: > 10 µM
- IC50 [5, 14]: 0.084 µM
- IC50 [6, 15]: 1.52 µM
Compound: COc1ccc(-c2ccc(S(=O)(=O)N[C@@H](C(C)C)P(=O)(O)O)cc2)cc1 [(R)-15, (R)-N-(4′-methoxybiphenylsulfonyl)-phosphovaline]
- IC50 [4]: 0.0015 µM
- IC50 [7]: 0.0014 µM

- IC50 [1, 8]: > 10 µM
- IC50 [2, 9]: > 10 µM
Compound: O=P(O)(O)CS(=O)(=O)c1ccc(-c2ccccc2)cc1 [Compound 1]

- IC50 [1, 8]: > 10 µM
- IC50 [2, 9]: > 10 µM
Compound: O=P(O)(O)CS(=O)(=O)c1ccc(-c2cccc(Cl)c2)cc1 [Compound 6]

- IC50 [1, 8]: > 10 µM
- IC50 [2, 9]: > 10 µM
Compound: O=P(O)(O)CS(=O)(=O)c1ccc(-c2cccs2)cc1 [Compound 7]

The remaining lines, values behind:

Compound: COc1ccc(-c2ccc(S(=O)(=O)CP(=O)(O)O)cc2)cc1 [Compound 4]
- IC50 [1, 8]: > 10 µM
- IC50 [2, 9]: > 10 µM

Compound: Cc1cccc(-c2ccc(S(=O)(=O)N[C@@H](C(C)C)P(=O)(O)O)cc2)c1 [(R)-13, (R)-1-[3′-methyl-biphenyl-4-sulfonylamino]-2-methylpropyl phosphonic acid]
- IC50 [1, 10]: > 10 µM
- IC50 [2]: > 10 µM

Compound: O=P(O)(O)CS(=O)(=O)c1ccc(-c2ccc(C(F)(F)F)cc2)cc1 [Compound 5]
- IC50 [1, 8]: > 10 µM
- IC50 [2, 9]: > 10 µM

Compound: O=C(CS(=O)(=O)c1ccc(-c2ccccc2)cc1)NO [Compound 3]
- IC50 [3, 12]: 8.86 µM
- IC50 [4]: 0.006 µM
- decrease in activity on CA II compared to the standard AAZ [1]: ~100 fold
- IC50 [1, 8]: 3.66 µM
- IC50 [1, 13]: 3.66 µM
- IC50 ([2]; read-out: IC50 CA I, rounded value): 8.3 µM
- IC50 [2, 9]: 8.3 µM
- IC50 [2, 11]: 8.3 µM
- IC50 ([5]; read-out: IC50 CA IX, rounded value): 0.5 µM
- IC50 [5, 14]: 0.527 µM
- IC50 [6, 15]: 8.53 µM
- IC50 [7]: 0.024 µM

Compound: CC(C)CC(P(=O)(O)O)S(=O)(=O)c1ccc(-c2ccccc2)cc1 (racemic) [Compound 9]
- IC50 [1, 8]: > 10 µM
- IC50 [2, 9]: > 10 µM

Compound: COc1ccc(Oc2ccc(S(=O)(=O)CP(=O)(O)O)cc2)cc1 [Compound 8]
- IC50 [1, 8]: > 10 µM
- IC50 [2, 9]: > 10 µM

Reference: PMC6009896, “Dual targeting of cancer-related human matrix metalloproteinases and carbonic anhydrases by chiral N-(biarylsulfonyl)-phosphonic acids” (Journal of Enzyme Inhibition and Medicinal Chemistry, 2017)
